These results are taken from patent US20240343733A1, “COMPOUNDS FOR TARGETING DEGRADATION OF IRAK4 PROTEINS” (BIOGEN MA INC., priority 2021, published 2024).

Where only a bound is given, the exact number is not on record here.

For the assay, the target named is T1, IRAK4 (Homo sapiens, UniProt Q9NWZ3).
T1 construct: 293Tcells expressing HiBiT-tagged IRAK4 were then added into 384-well plates
T1 sequence (Q9NWZ3 1-460): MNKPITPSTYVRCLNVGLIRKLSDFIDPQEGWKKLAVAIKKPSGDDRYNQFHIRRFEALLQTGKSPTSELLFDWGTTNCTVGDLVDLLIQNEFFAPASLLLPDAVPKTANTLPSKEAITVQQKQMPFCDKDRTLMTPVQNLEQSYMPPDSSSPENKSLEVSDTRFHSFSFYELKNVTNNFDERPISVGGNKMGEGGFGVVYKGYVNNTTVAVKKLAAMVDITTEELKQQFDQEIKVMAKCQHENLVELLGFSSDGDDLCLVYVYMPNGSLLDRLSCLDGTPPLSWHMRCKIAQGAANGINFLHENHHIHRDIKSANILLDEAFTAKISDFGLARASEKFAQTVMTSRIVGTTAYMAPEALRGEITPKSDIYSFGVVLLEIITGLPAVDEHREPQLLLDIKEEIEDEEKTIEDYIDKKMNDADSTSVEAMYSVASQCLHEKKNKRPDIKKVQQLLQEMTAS
Put plainly: IRAK4 Degradation Assay, HiBiT Method. Type of assay: cell-based. The note with it: 293T cells expressing HiBiT-tagged IRAK4, 6 hours. The method, boiled down: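 Luminescent read-out with Nano-Glo HiBiT lytic reagent after 6 h compound exposure at 37 °C. Cells were HiBiT-IRAK4 knock-in 293T (C-terminal tag), 10,000 per well. Compounds ran as 11-point half-log dilutions from […] highest dose, duplicate wells; DMSO served as negative control.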
Background: The HiBiT peptide binds its large partner to form an active luciferase.
As a reminder, the DC50 is the concentration giving 50% degradation. A higher DC50 goes with degradation only at high concentration. On to `CC(C)Oc1cc2nc([C@H]3CC[C@H](CN4CCC(c5ccc(NC6CCC(=O)NC6=O)cn5)CC4)CC3)cn2cc1C(=O)Nc1cccc(C(F)F)n1` (some centres unmarked) [Example 35, N-[6-(difluoromethyl)-2-pyridyl]-2-[4-[[4-[5-[(2,6-dioxo-3-piperidyl)amino]-2-pyridyl]-1-piperidyl]methyl]cyclohexyl]-7-isopropoxy-imidazo[1,2-a]pyridine-6-carboxamide], for which the 50% degradation concentration (DC50) fell in the range of 10 to 100 nM.
Under `CO[C@H]1CN(C[C@H]2CC[C@H](c3cn4cc(C(=O)Nc5cccn([C@H]6C[C@H]6F)c5=O)c(OC(C)C)cc4n3)CC2)CC[C@H]1c1ccc2c(N3CCC(=O)NC3=O)nn(C)c2c1` [Example 191] stands less than 10 nM.
Under `CC(C)Oc1cc2nc(C3CCN(C(=O)NC4CCN(c5ncc(C6CCC(=O)NC6=O)cc5F)CC4)CC3)cn2cc1C(=O)Nc1cnn2cccnc12` (centres unmarked) [Example 158, 2-(1-((1-(5-(2,6-dioxopiperidin-3-yl)-3-fluoropyridin-2-yl)piperidin-4-yl)carbamoyl)piperidin-4-yl)-7-isopropoxy-N-(pyrazolo[1,5-a]pyrimidin-3-yl)imidazo[1,2-a]pyridine-6-carboxamide] stands less than 10 nM; under `CC(C)Oc1cc2nc([C@H]3CC[C@H](CN4CCC(c5cc6c(cc5F)c(N5CCC(=O)NC5=O)nn6C)C(F)(F)C4)CC3)cn2cc1C(=O)Nc1cccc(C(F)F)n1` (some centres unmarked) [Example 33, N-[6-(difluoromethyl)-2-pyridyl]-2-[4-[[4-[3-(2,4-dioxohexahydropyrimidin-1-yl)-5-fluoro-1-methyl-indazol-6-yl]-3,3-difluoro-1-piperidyl]methyl]cyclohexyl]-7-isopropoxy-imidazo[1,2-a]pyridine-6-carboxamide], 100 to 500 nM.
For the compound `CC(C)Oc1cc2nc(C3CCN(CC(=O)N4CCC(c5ccc(NC6CCC(=O)NC6=O)cc5)CC4)CC3)cn2cc1C(=O)Nc1cccc(C(F)(F)F)c1` (centres unmarked) [Example 106, 2-[1-[2-[4-[4-[(2,6-dioxo-3-piperidyl)amino]phenyl]-1-piperidyl]-2-oxo-ethyl]-4-piperidyl]-7-isopropoxy-N-[3-(trifluoromethyl)phenyl]imidazo[1,2-a]pyridine-6-carboxamide], the DC50 lay within 100 to 500 nM.
Next, `CC(C)Oc1cc2nn(C3CCN(C(=O)CC4(O)CCN(c5ccc(NC6CCC(=O)NC6=O)cc5)CC4)CC3)cc2cc1C(=O)Nc1cccc(C(F)F)n1` (centres unmarked) [Example 65, N-(6-(difluoromethyl)pyridin-2-yl)-2-(1-(2-(1-(4-((2,6-dioxopiperidin-3-yl)amino)phenyl)-4-hydroxypiperidin-4-yl)acetyl)piperidin-4-yl)-6-isopropoxy-2H-indazole-5-carboxamide]: 10 to 100 nM; `CC(C)Oc1cc2nc([C@H]3CC[C@H](CN(C)C4CCN(c5cccc(C6CCC(=O)NC6=O)c5)CC4)CC3)cn2cc1C(=O)Nc1cccc(C(F)(F)F)n1` (some centres unmarked) [Example 11, 2-[4-[[[1-[3-(2,6-dioxo-3-piperidyl)phenyl]-4-piperidyl]-methyl-amino]methyl]cyclohexyl]-7-isopropoxy-N-[6-(trifluoromethyl)-2-pyridyl]imidazo[1,2-a]pyridine-6-carboxamide]: 10 to 100 nM; `CC(C)Oc1cc2nc(C3CCN(C(=O)CCCNc4ccc(C5CCC(=O)NC5=O)cn4)CC3)cn2cc1C(=O)Nc1cccn([C@H]2C[C@H]2F)c1=O` (stereo partly drawn) [Example 164, 2-(1-(4-((5-(2,6-dioxopiperidin-3-yl)pyridin-2-yl)amino)butanoyl)piperidin-4-yl)-N-(1-((1S,2R)-2-fluorocyclopropyl)-2-oxo-1,2-dihydropyridin-3-yl)-7-isopropoxyimidazo[1,2-a]pyridine-6-carboxamide]: 10 to 100 nM.
Under `CC(C)Oc1nc2nc(C3CCN(C(=O)N(C)C4CCN(c5ncc(C6CCC(=O)NC6=O)cc5F)CC4)CC3)cn2cc1C(=O)Nc1cccn([C@H]2C[C@H]2F)c1=O` (some centres unmarked) [Example 193] stands 10 to 100 nM; under `CC(C)Oc1cc2nc([C@H]3CC[C@H](CN4CCC(c5cccc(NC6CCC(=O)NC6=O)c5)CC4)CC3)cn2cc1C(=O)Nc1cccc(C(F)F)n1` (some centres unmarked) [Example 26, N-[6-(difluoromethyl)-2-pyridyl]-2-[4-[[4-[3-[(2,6-dioxo-3-piperidyl)amino]phenyl]-1-piperidyl]methyl]cyclohexyl]-7-isopropoxy-imidazo[1,2-a]pyridine-6-carboxamide], 100 to 500 nM.
With `CC(C)Oc1cc2nc(C3CCN(CC(=O)N4CCC(c5ccc(NC6CCC(=O)NC6=O)cc5)CC4)CC3)cn2cc1C(=O)Nc1ccccc1` (centres unmarked) [Example 93, 2-[1-[2-[4-[4-[(2,6-dioxo-3-piperidyl)amino]phenyl]-1-piperidyl]-2-oxo-ethyl]-4-piperidyl]-7-isopropoxy-N-phenyl-imidazo[1,2-a]pyridine-6-carboxamide], the DC50 lay within 100 to 500 nM.
`CC(C)Oc1cc2nc([C@H]3CC[C@H](CN4CCC(c5cc6c(cc5F)c(N5CCC(=O)NC5=O)nn6C)C(F)(F)C4)CC3)cn2cc1C(=O)Nc1cnn2cccnc12` (some centres unmarked) [Example 170, 2-((1r,4r)-4-((4-(3-(2,4-dioxotetrahydropyrimidin-1(2H)-yl)-5-fluoro-1-methyl-1H-indazol-6-yl)-3,3-difluoropiperidin-1-yl)methyl)cyclohexyl)-7-isopropoxy-N-(pyrazolo[1,5-a]pyrimidin-3-yl)imidazo[1,2-a]pyridine-6-carboxamide] came in with a DC50 of 10 to 100 nM.
Under `CC(C)Oc1cc2nc(C3CCN(C(=O)CC4CC5(C4)CN(c4ccc(C6CCC(=O)NC6=O)cc4)C5)CC3)cn2cc1C(=O)Nc1cccc(C(F)F)n1` (centres unmarked) [Example 90, N-[6-(difluoromethyl)-2-pyridyl]-2-[1-[2-[2-[4-(2,6-dioxo-3-piperidyl)phenyl]-2-azaspiro[3.3]heptan-6-yl]acetyl]-4-piperidyl]-7-isopropoxy-imidazo[1,2-a]pyridine-6-carboxamide] stands 10 to 100 nM.
Next, `CC(C)Oc1cc2nn([C@H]3CC[C@H](CN4CCC(c5ccc(O[C@@H]6CCC(=O)NC6=O)cc5)CC4)CC3)cc2cc1C(=O)Nc1cccn(C2CC2)c1=O` (single isomer, unassigned) [Example 143]: 10 to 100 nM.
Under `CC(C)Oc1cc2nc(C3CCN(CC(=O)N4CCC(c5ccc(C6(F)CCC(=O)NC6=O)cc5)CC4)CC3)cn2cc1C(=O)Nc1ccn(C)n1` (centres unmarked) [Example 102, 2-[1-[2-[4-[4-(3-fluoro-2,6-dioxo-3-piperidyl)phenyl]-1-piperidyl]-2-oxo-ethyl]-4-piperidyl]-7-isopropoxy-N-(1-methylpyrazol-3-yl)imidazo[1,2-a]pyridine-6-carboxamide] stands 10 to 100 nM.
As to `CC(C)Oc1cc2nc(C3CCN(C(=O)CN4CCC(c5ccc(C6(F)CCC(=O)NC6=O)cc5)CC4)CC3)cn2cc1C(=O)Nc1cccc(C(F)F)n1` (centres unmarked) [Example 88, N-[6-(difluoromethyl)-2-pyridyl]-2-[1-[2-[4-[4-(3-fluoro-2,6-dioxo-3-piperidyl)phenyl]-1-piperidyl]acetyl]-4-piperidyl]-7-isopropoxy-imidazo[1,2-a]pyridine-6-carboxamide], the DC50 was 10 to 100 nM.
Next, `CC(C)Oc1cc2nc([C@H]3CC[C@H](CN(C)C4CCN(c5cccc(NC6CCC(=O)NC6=O)c5)CC4)CC3)cn2cc1C(=O)Nc1cccc(C(F)(F)F)n1` (some centres unmarked) [Example 9, 2-[4-[[[1-[3-[(2,6-dioxo-3-piperidyl)amino]phenyl]-4-piperidyl]-methyl-amino]methyl]cyclohexyl]-7-isopropoxy-N-[6-(trifluoromethyl)-2-pyridyl]imidazo[1,2-a]pyridine-6-carboxamide]: 500 to 1000 nM; `CC(C)Oc1cc2nc(C3CCN(C(=O)CC4CCN(c5ccc6c([C@H]7CCC(=O)NC7=O)nn(C)c6c5)CC4)CC3)cn2cc1C(=O)Nc1cccc(C(F)F)n1` [Example 91, (R)—N-(6-(difluoromethyl)pyridin-2-yl)-2-(1-(2-(1-(3-(2,6-dioxopiperidin-3-yl)-1-methyl-1H-indazol-6-yl)piperidin-4-yl)acetyl)piperidin-4-yl)-7-isopropoxyimidazo[1,2-a]pyridine-6-carboxamide]: 10 to 100 nM; `CC(C)Oc1cc2nn([C@H]3CC[C@H](CN[C@@H]4CC[C@H](c5ccc6c(N7CCC(=O)NC7=O)nn(C)c6c5)[C@H](O)C4)CC3)cc2cc1C(=O)Nc1cccn([C@H]2C[C@H]2F)c1=O` [Example 138, 2-((1R,4S)-4-((((1R,3R,4R)-4-(3-(2,4-dioxotetrahydropyrimidin-1(2H)-yl)-1-methyl-1H-indazol-6-yl)-3-hydroxycyclohexyl)amino)methyl)cyclohexyl)-N-(1-((1S,2R)-2-fluorocyclopropyl)-2-oxo-1,2-dihydropyridin-3-yl)-6-isopropoxy-2H-indazole-5-carboxamide]: less than 10 nM.
Under `CC(C)Oc1cc2nc(C3CCN(C(=O)CC4(O)CCN(c5cc(Cl)c(NC6CCC(=O)NC6=O)cc5Cl)CC4)CC3)cn2cc1C(=O)Nc1cccc(C(F)F)n1` (centres unmarked) [Example 75, 2-[1-[2-[1-[2,5-dichloro-4-[(2,6-dioxo-3-piperidyl)amino]phenyl]-4-hydroxy-4-piperidyl]acetyl]-4-piperidyl]-N-[6-(difluoromethyl)-2-pyridyl]-7-isopropoxy-imidazo[1,2-a]pyridine-6-carboxamide] stands 10 to 100 nM.
